Assay results as given in US9670229B2, “5-HT3 receptor antagonists” (Takeda Pharmaceutical Company Limited, priority 2012, dated 2017).

Each compound was assayed against 5-HT3a receptor expressed in HEK-293T cells (Homo sapiens (Human), UniProt P46098) (assay: Inhibition of Ca flux activity of 5-HT3 in vitro assay). Details: approximate IC50; calcium flux, 5HT 216 nM, HEK-293T cells transfected with 5-HT3a.
Sequence of 5-HT3a receptor expressed in HEK-293T cells (P46098 24-478): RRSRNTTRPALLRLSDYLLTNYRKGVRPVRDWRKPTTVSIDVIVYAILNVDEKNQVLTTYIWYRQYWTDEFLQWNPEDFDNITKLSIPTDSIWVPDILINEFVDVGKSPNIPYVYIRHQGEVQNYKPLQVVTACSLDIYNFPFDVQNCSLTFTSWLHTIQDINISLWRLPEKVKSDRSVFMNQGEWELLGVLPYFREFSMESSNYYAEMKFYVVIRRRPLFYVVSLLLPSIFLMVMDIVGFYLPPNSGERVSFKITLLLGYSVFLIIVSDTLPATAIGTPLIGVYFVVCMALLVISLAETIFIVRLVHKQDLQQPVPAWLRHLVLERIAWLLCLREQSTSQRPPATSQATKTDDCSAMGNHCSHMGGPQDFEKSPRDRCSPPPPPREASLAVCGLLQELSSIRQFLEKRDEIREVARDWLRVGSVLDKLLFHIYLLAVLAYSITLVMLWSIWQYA
Type: cell-based
Method: The 5-HT3 antagonist activity of the compounds of the invention was determined by measuring the ability of the compounds to inhibit the calcium flux activity of […] receptor expressed in HEK-293T cells. HEK-293T cells were transfected with the 5-HT3a expression construct using Xtreme Gene 9 (Roche) in 150 mm tissue culture treated plates and incubated for 24 hours at 37° C. Cells were then split and plated at a density of 60K cells/well in poly-lysine coated, black 96-well plates with clear bottoms (BD BioSciences) and incubated overnight at 37° C. Growth media was removed and cells loaded with 200 uL calcium indicator dye in HBSS containing 20 mM HEPES (Calcium 5 Assay kit, Molecular Devices) and incubated at 37° C. for 1 hour. While cells were incubating, the 10× antagonist and agonist/antagonist addition plates were made. For 10× antagonist plate: half log serial dilutions (final concentrations range from 10^−7 through 10^−10 with the bottom well a negative, no ligand control) were made from test compounds in DMSO at a 1000× concentration and then diluted to 10× in HBSS/20 mM HEPES. For addition plate: 5HT was diluted to 100× in HBSS/20 mM HEPES (final concentration in the assay-216 nM) and 15 uL was added to each well of the addition plate, 15 uL of 10× compound was also added to the addition plate, and finally 120 uL of HBSS/20 mM HEPES (for a total of 150 uL). Cells were then removed from the incubator and equilibrated to room temperature for 10 minutes, then 22.5 uL of 10× test compounds were added in triplicate to the plates and incubated at room temperature for 10 minutes (Tropisetron was used as a positive control in every assay). Test plate and addition plate were loaded into the FlexStation III (Molecular Devices), and using the fluidics, 22.5 uL compound additions were made (at t=˜17 seconds), and fluorescence was measured for 90 seconds, reading every 2.2 seconds. Data sets were analyzed as max minus min using Software Max Pro (Molecular Devices). IC50 curves were generated using non-linear regression in GraphPad Prism.
With `CN1[C@@H]2COC[C@H]1C[C@@H](NC(=O)c1cn(-c3ccccn3)c3ccccc13)C2` [Compound 6, N-((1R,5S,7S)-9-methyl-d3-3-oxa-9-azabicyclo[3.3.1]nonan-7-yl)-1-(pyridin-2-yl)-1H-indole-3-carboxamide, 2,2,2-trifluoroacetate] the IC50 was 1.1 nM.
With `CN1[C@@H]2COC[C@H]1C[C@@H](NC(=O)c1cn(-c3ccc[n+]([O-])c3)c3ccccc13)C2` [Compound 32, 3-(3-(((1R,5S,7S)-9-methyl-3-oxa-9-azabicyclo[3.3.1]nonan-7-yl)carbamoyl)-1H-indol-1-yl)pyridine 1-oxide] the IC50 was 1.36 nM.
With `CN1[C@@H]2COC[C@H]1C[C@@H](OC(=O)c1cn(-c3cn[nH]c3)c3ccccc13)C2` [Compound 29, (1R,5S,7S)-9-methyl-3-oxa-9-azabicyclo [3.3.1]nonan-7-yl 1-(1H-pyrazol-4-yl)-1H-indole-3-carboxylate] the IC50 was 0.462 nM.
For `CN1[C@@H]2COC[C@H]1C[C@@H](OC(=O)c1cn(-c3cnn(C)c3)c3ccccc13)C2` [Compound 26, (1R,5S,7S)-9-methyl-3-oxa-9-azabicyclo[3.3.1]nonan-7-yl 1-(1-methyl-1H-pyrazol-4-yl)-1H-indole-3-carboxylate], the IC50 was 1.2 nM.
With “(1R,5S,7S)-9-methyl-3-oxa-9-azabicyclo [3.3.1]nonan-7-yl 1-(1-(2-fluoroethyl)- 1H-pyrazol-4-yl)-1H-indole-3-carboxylate, 2,2,2-trifluoroacetic acid salt [Compound 18]” the IC50 was 2.01 nM.
